{"source": "paper PMC9246774", "about": "“Construction and Functional Evaluation of a Three-Dimensional Blood–Brain Barrier Model Equipped With Human Induced Pluripotent Stem Cell-Derived Brain Microvascular Endothelial Cells” (Pharmaceutical Research, 2022)", "key": {"[1]": {"system": "hiPS-BMECs", "conditions": "cited from earlier work"}, "[2]": {"system": "hiPS-BMECs", "assay": "Permeability experiments in the 3D-BBB system (hiPS-BMECs on OrganoPlate 3-lane)", "experimental": "(§1) The 3D-BBB system using the OrganoPlate® 3-lane plate was constructed with some modifications to the protocol published by MIMETAS. During the differentiation of hiPS-BMECs, to separate the capillary side from the brain side, extracellular matrix hydrogel composed of 4 mg/mL collagen I (Cultrex 3D Matrix Rat Collagen-I, 5 mg/mL, AMSbio), 100 mM HEPES, and 3.7 mg/mL NaHCO3 was dispensed into the middle lane. The plate was incubated at 37°C for 15 min to polymerize collagen I. After incubation, HBSS (+) without phenol red (Fujifilm Wako) was added to the gel channel to prevent the gel from drying out. […] The suspension was injected into capillary lanes precoated with fibronectin/collagen IV solution (PharmCo-Cell). After seeding the cells, the plate was incubated for 4 h at a tilt to allow the cells to adhere to the gel. After incubation, the medium was added to the capillary channels and the plate was placed on an OrganoFlow® (MIMETAS), switching between a + 7° and − 7° inclination every 8 min to create a bidirectional flow mimicking blood flow. On day 9, the medium in the capillary channels was replaced with fresh ESFM + 1% hPDS containing 10 μM MMP inhibitor.\n(§2) Permeability experiments were performed on day 10, at 48 h after seeding hiPS-BMECs on the plate. […] The assay buffer containing test drugs was added to the donor side to initiate the assay, and the plate was then incubated on the OrganoFlow® at 37°C for the designated times. Transporter inhibitors were added to both the donor and receiver sides at the start of preincubation. In all permeability experiments, the amount of lucifer yellow transported through the paracellular pathway to the receiver side was measured with a SpectraMax i3x (Molecular Devices, San Jose, CA) as a measure of cell-to-cell tightness. The protocol for the permeability experiments, including the composition of the assay buffer, is described in detail in the Supplementary Material. The apparent permeability coefficient (Papp) was calculated as follows: Papp=(dQ/dt)/D0×S\n(§3) where dQ/dt, D0, and S are the transport velocity of the test drugs, the initial concentration of test drugs on the donor side, and the surface area of the extracellular matrix hydrogel in the middle lane, respectively. The efflux ratio value was calculated from the Papp value in the capillary-to-brain (A-to-B) and brain-to-capillary (B-to-A) directions as follows: Effluxratio=Papp,B-to-A/Papp,A-to-B.\n(§4) The test drugs were quantified using a high-performance liquid chromatography (HPLC)-tandem mass spectrometry system composed of a Nexera-XR (Shimazu, Kyoto, Japan) HPLC system connected to a Qtrap4500 (AB Sciex, Foster City, CA, USA) mass spectrometer with an electrospray ionization interface.\n(§5) On day 10, remove the medium in the capillary lane of the 3D-BBB system. After removal, 100 µL of assay buffer (50 µL in each Well ➀, ②, ⑤ and ⑥) was added to the capillary and brain lane for washing. After 30 min for washing, 100 µL of a fresh assay buffer containing the drug was added to the donor side (A-to-B direction; 50 µL in each Well ➀ and ②, B-to-A direction; 50 µL in each Well ⑤ and ⑥). In addition, 100 µL of a fresh assay buffer was added to the receiver side (A-to-B direction; 50 µL in each Well ⑤ and ⑥, B-to-A direction; 50 µL in each Well ➀ and ②). Inhibitors were added on both sides of the donor and receiver to avoid a gradient in concentration. At the designed sampling time, 50 µL of assay buffer was collected from the receiver side (A-to-B direction; 25 µL in each Well ⑤ and ⑥, B-to-A direction; 25 µL in each Well ➀ and ②), and 50 µL of a fresh assay buffer was added."}, "[3]": {"system": "MCTs", "assay": "Inhibition of H+-gradient-promoted [14C] L-lactate transport in the 3D-BBB system", "type": "cell-based, human", "conditions": "20 nM AZD3965; one lane pH 6.0, opposite lane pH 7.4", "description": "Permeability experiments were performed on day 10, at 48 h after seeding hiPS-BMECs on the plate. After removal of the medium in the capillary channels, the assay buffer (pH 7.4) was added to both sides of the capillary and brain channels and preincubated on the OrganoFlow® for 30 min. The assay buffer containing test drugs was added to the donor side to initiate the assay, and the plate was then incubated on the OrganoFlow® at 37°C for the designated times. Transporter inhibitors were added to both the donor and receiver sides at the start of preincubation. In all permeability experiments, the amount of lucifer yellow transported through the paracellular pathway to the receiver side was measured with a SpectraMax i3x (Molecular Devices, San Jose, CA) as a measure of cell-to-cell tightness. […] The apparent permeability coefficient (Papp) was calculated as follows: Papp=(dQ/dt)/D0×S\nOn day 10, remove the medium in the capillary lane of the 3D-BBB system. After removal, 100 µL of assay buffer (50 µL in each Well ➀, ②, ⑤ and ⑥) was added to the capillary and brain lane for washing. […] At 3.5 hr after the start of permeability experiment, the transport amount of lucifer yellow on the receiver side was measured to check for leakage, and all donor and receiver were collected at 4 hr."}, "[4]": {"assay": "Permeability in the hydrogel without hiPS-BMECs (OrganoPlate 3-lane)", "type": "in vitro ADME", "conditions": "pH 7.4, upper limit of the system, data not shown"}, "[5]": {"assay": "Permeability experiments in the 3D-BBB system (hiPS-BMECs on OrganoPlate 3-lane)", "conditions": "human", "experimental": "as §1, §2, §3, §4, §5"}, "[6]": {"system": "BCRP", "assay": "Permeability experiments in the 3D-BBB system (hiPS-BMECs on OrganoPlate 3-lane)", "conditions": "human, pH 7.4, with Ko143 1 µM (BCRP inhibitor), Efflux ratio (B-to-A/A-to-B), + 1 μM Ko143 (BCRP inhibitor)", "experimental": "as §1, §2, §3, §4, §5"}, "[7]": {"system": "monkey in vitro BBB model", "set-up": "method as in PMID 34575559", "conditions": "cited from earlier work"}, "[8]": {"system": "human BBB", "set-up": "method as in PMID 24947467", "conditions": "prediction for human BBB; cited from earlier work"}, "[9]": {"conditions": "pH 7.4, Efflux ratio (B-to-A/A-to-B), Control"}}, "data": [{"compound": "lucifer yellow", "values": [{"measurement": "Papp in 2D culture of hiPS-BMECs", "setting": "[1]", "result": "0.0845 × 10^–6 cm/s"}, {"measurement": "Block of leakage by hiPS-BMECs", "setting": "[2]", "result": "more than 99%"}]}, {"compound": "NC(N)=NCCC[C@H](N)C(=O)O", "note": "[[^3H] L-Arginine, Arginine, L-[2,3,4-^3H]]", "values": [{"measurement": "Efflux ratio (B-to-A/A-to-B)", "setting": "[2]; Control", "result": 0.410}, {"measurement": "Papp B-to-A", "setting": "[2]; Control, brain-to-capillary, pH 7.4", "result": "5.77 × 10^–6 cm/s"}, {"measurement": "Papp A-to-B", "setting": "[2]; Control, capillary-to-brain, pH 7.4", "result": "14.1 × 10^–6 cm/s"}]}, {"compound": "Cc1[nH]nc(C(F)(F)F)c1Cc1sc2c(c1C(=O)N1C[C@](C)(O)CO1)c(=O)n(C)c(=O)n2C(C)C", "note": "[AZD3965]", "values": [{"measurement": "Reduction of [14C] L-lactate transport promoted by the H+-gradient", "setting": "[3]", "result": "approximately 60%"}]}, {"compound": "Cc1cc(=O)n(-c2ccccc2)n1C", "note": "[Antipyrine]", "values": [{"measurement": "Papp at 4 h", "setting": "[4]", "result": 59.2, "unit": "×10⁻⁶ cm/s"}, {"measurement": "Papp A→B at 4 h", "setting": "[5]; pH 7.4", "result": 33.4, "unit": "×10⁻⁶ cm/s"}, {"measurement": "Papp B→A at 4 h", "setting": "[5]; pH 7.4", "result": 35.1, "unit": "×10⁻⁶ cm/s"}, {"measurement": "efflux ratio at 4 h", "setting": "[5]; [9]", "result": 1.05}]}, {"compound": "[14CH3][14CH](O)[14C](=O)[O-].[Na+]", "note": "[[^14C] L-Lactate, Lactic acid sodium salt, L-[^14C(U)]]", "values": [{"measurement": "Efflux ratio (B-to-A/A-to-B)", "setting": "[2]; A: pH 6.0—B: pH 7.4", "result": 0.257}, {"measurement": "Papp A-to-B", "setting": "[2]; A: pH 6.0—B: pH 7.4", "result": "34.1 × 10^–6 cm/s"}, {"measurement": "Papp B-to-A", "setting": "[2]; A: pH 6.0—B: pH 7.4", "result": "8.74 × 10^–6 cm/s"}, {"measurement": "Papp A-to-B", "setting": "[2]; A: pH 6.0—B: pH 7.4, + 20 nM AZD3965", "result": "12.0 × 10^–6 cm/s"}, {"measurement": "Efflux ratio (B-to-A/A-to-B)", "setting": "[2]; A: pH 7.4—B: pH 6.0", "result": 3.07}, {"measurement": "Papp A-to-B", "setting": "[2]; A: pH 7.4—B: pH 6.0", "result": "7.68 × 10^–6 cm/s"}, {"measurement": "Papp B-to-A", "setting": "[2]; A: pH 7.4—B: pH 6.0", "result": "23.6 × 10^–6 cm/s"}, {"measurement": "Papp B-to-A", "setting": "[2]; A: pH 7.4—B: pH 6.0, + 20 nM AZD3965", "result": "9.60 × 10^–6 cm/s"}, {"measurement": "Efflux ratio (B-to-A/A-to-B)", "setting": "[2]; A: pH 7.4—B: pH 7.4", "result": 0.944}, {"measurement": "Papp A-to-B", "setting": "[2]; A: pH 7.4—B: pH 7.4", "result": "19.1 × 10^–6 cm/s"}, {"measurement": "Papp B-to-A", "setting": "[2]; A: pH 7.4—B: pH 7.4", "result": "18.1 × 10^–6 cm/s"}]}, {"compound": "Nc1nc(Cl)nc2c1ncn2[C@H]1C[C@H](O)[C@@H](CO)O1", "note": "[Cladribine]", "values": [{"measurement": "efflux ratio at 4 h", "setting": "[6]", "result": 1.45}, {"measurement": "Papp A→B at 4 h", "setting": "[5]; pH 7.4", "result": 2.69, "unit": "×10⁻⁶ cm/s"}, {"measurement": "Papp B→A at 4 h", "setting": "[5]; pH 7.4", "result": 15.1, "unit": "×10⁻⁶ cm/s"}, {"measurement": "efflux ratio at 4 h", "setting": "[5]; [9]", "result": 5.6}, {"measurement": "Efflux ratio (B-to-A/A-to-B)", "setting": "[2]; Control", "result": 5.61}]}, {"compound": "C=C[C@H]1C[N@@]2CC[C@H]1C[C@@H]2[C@@H](O)c1ccnc2ccc(OC)cc12", "note": "[Quinidine]", "values": [{"measurement": "Efflux ratio", "setting": "[7]", "result": "approximately 1.7"}, {"measurement": "Papp A→B at 4 h", "setting": "[5]; pH 7.4", "result": 21.6, "unit": "×10⁻⁶ cm/s"}, {"measurement": "Papp B→A at 4 h", "setting": "[5]; pH 7.4", "result": 22.8, "unit": "×10⁻⁶ cm/s"}, {"measurement": "efflux ratio at 4 h", "setting": "[5]; [9]", "result": 1.06}, {"measurement": "Efflux ratio", "setting": "[8]", "result": "~13.4"}]}, {"compound": "NCC1(CC(=O)O)CCCCC1", "note": "[Gabapentin]", "values": [{"measurement": "Papp A→B at 4 h", "setting": "[5]; pH 7.4", "result": 16, "unit": "×10⁻⁶ cm/s"}, {"measurement": "Papp B→A at 4 h", "setting": "[5]; pH 7.4", "result": 6.4, "unit": "×10⁻⁶ cm/s"}, {"measurement": "efflux ratio at 4 h", "setting": "[5]; pH 7.4", "result": 0.401}]}]}
